Source: US20220402873A1, “NOVEL P62 LIGAND COMPOUND, AND COMPOSITION CONTAINING SAME FOR PREVENTING, AMELIORATING, OR TREATING PROTEINOPATHIES” (AUTOTAC INC., priority 2019, published 2022)

Experiments:
Type in all cases: cell-based
p62 protein [1] = target: T1, p62 protein (Homo sapiens, UniProt Q13501); test: Oligomerization activity of p62 protein by immunoblotting; parameters: endogenous in cells; conditions: HEK293 cell line lysate treated with test compounds for 2 hours at room temperature
Description: In order to evaluate the oligomerization activity efficacy of p62 protein of the compounds (Examples 1-20), HEK293 cell line, which is human embryonic kidney-derived cell, was collected. As representative compounds of the present compounds, the compounds of Examples 1-20 (Example 1 (ATB10048), Example 2 (ATB10047), Example 3 (ATB10049), Example 4 (ATB10051), Example 5 (ATB10050), Example 6 (ATB10056), Example 7 (ATB10052), Example 8 (ATB10057), Example 9 (ATB10060), Example 10 (ATB10072), Example 11 (ATB10075), Example 12 (ATB10078), Example 13 (ATB10079), Example 14 (ATB10080), Example 15 (ATB10081), Example 16 (ATB10087), Example 17 (ATB10096), Example 18 (ATB10097), Example 19 (ATB10099) and Example 20 (ATB10100)) were selected, and in order to measure the activation and oligomerization of the p62 protein in cells according to the treatment with these selected representative compounds, each cell was dispensed into a 100 phi dish. The cells were collected after additional culture for 24 hours so that the cells were completely attached to the surface of the plate, and 100 ul of lysis buffer (20 mM Tris (pH 7.4), 150 mM NaCl, 1% Triton X-100, 2 mM NaF, 2 mM EDTA, 2 mM beta-glycerophosphate, 5 mM sodium orthovanadate, 1 mM PMSF, leupeptin, aproteinin) was injected to each sample, and the cells were lysed. Based on the measured total protein concentration, each sample was treated with the test compounds for 2 hours at room temperature, and then a sample buffer was added and reacted at 95° C. for 10 minutes. 25 ul was taken from the samples after the reaction was completed and dispensed into each well of an acrylamide gel, and immunoblotting was performed.

p62 protein [2] = target: T1, p62 protein; test: Activity of p62 protein and delivery of ubiquitinated substrate proteins to autophagy by immunofluorescence staining (p62, FK2) and confocal microscopy; parameters: endogenous in cells; host or cells: HeLa; conditions: Hela cell line, 1 uM, 6 hours
Description: Immunofluorescence staining was performed using p62 and FK2 as markers to determine the level of the activity of p62 protein of the compounds (Examples 1-20). In order to determine the level of p62 activity and autophagy activity by the novel p62 ligand and its isomers in the cultured cells, the Hela cell line derived from cervical cancer patients was treated with a novel p62 ligand compound (Example 1 (ATB10048), Example 2 (ATB10047), Example 3 (ATB10049), Example 5 (ATB10050), Example 4 (ATB10051), Example 7 (ATB10052), Example 6 (ATB10056), Example 8 (ATB10057), Example 9 (ATB10060), Example 10 (ATB10072), Example 11 (ATB10075), Example 12 (ATB10078), […], Example 14 (ATB10080), Example 15 (ATB10081), Example 16 (ATB10087)), Example 17 (ATB0096), Example 18 (ATB10097), Example 19 (ATB10099) and Example 20 (ATB10100)) and cultured, and then the level of puncta expression and location of FK2, which was a marker of the protein to be delivered to and degraded in the autophagy through the mediation of the intracellular ubiquitinated p62, and the puncta local co-existence with p62 were observed.
For immunofluorescence staining, a cover glass was placed on a 24-well plate, cells were dispensed and cultured for 24 hours, and then 1 uM of the novel p62 ligand according to the present invention was treated. After culturing for an additional 6 hours for the action of the compound, the medium was removed, and the cells were fixed using formaldehyde at room temperature. In order to prevent non-specific staining, the cells were reacted with a blocking solution at room temperature for 1 hour, and then the LC3 antibody diluted at a certain ratio was treated with a blocking solution and then reacted at room temperature for 1 hour. After the antibody-treated cells were washed 3 times with PBS, the goat-derived secondary antibody was diluted at a certain ratio using the blocking solution, and then reacted at room temperature for 30 minutes. After further washing with PBS three times, and DAPI staining was performed for intracellular nuclear staining. Then, the level of expression of p62 or FK2, the level of intracellular puncta formation, and the level of coexistence in the cells were observed by a confocal microscope.

p62 protein [3] = target: T1, p62 protein; test: Activity of p62 protein and delivery to autophagosome by immunofluorescence staining (p62, LC3-GFP) and confocal microscopy; parameters: endogenous in cells; host or cells: HeLa; conditions: Hela-LC3-GFP cell line, 5 uM, 24 hours
Description: Immunofluorescence staining was performed using p62 and FK2 marker to determine the level of activity of p62 protein of the compounds (Examples 1-20). In order to determine the level of p62 activity and autophagy activity by the novel p62 ligand and its isomers in cultured cells, Hela-LC3-GFP cell line derived from cervical cancer patients was treated with the novel p62 ligand compounds (Example 2 (ATB10047), Example 3 (ATB10049), Example 4 (ATB10051), Example 6 (ATB10056), Example 9 (ATB10060), Example 12 (ATB10078), Example 16 (ATB10087) and Example (ATB10097)) and cultured. Then, the level of puncta expression and location of LC3-GFP, which is an essential autophagosome marker for macroautophagy, and the puncta local co-existence of p62 were observed.
For immunofluorescence staining, a cover glass was placed on a 24-well plate, cells were dispensed and cultured for 24 hours, and then treated with 5 uM of the novel p62 ligand according to the present invention. The cells were further cultured for an additional 24 hours for the action of the compound, the medium was removed, and the cells were fixed using formaldehyde at room temperature. In order to prevent non-specific staining, the cells were reacted with a blocking solution at room temperature for 1 hour, and then the LC3 antibody diluted at a certain ratio was treated with the blocking solution and then reacted at room temperature for 1 hour. After the antibody-treated cells were washed 3 times with PBS, the goat-derived secondary antibody was diluted at a certain ratio using the blocking solution, and then reacted at room temperature for 30 minutes. The cells were washed again with PBS three times and subjected to DAPI staining for intracellular nuclear staining, and then the level of expression of p62 or LC3, intracellular puncta formation, and intracellular coexistence level were observed by a confocal microscope.

T1 sequence (Q13501 whole entry): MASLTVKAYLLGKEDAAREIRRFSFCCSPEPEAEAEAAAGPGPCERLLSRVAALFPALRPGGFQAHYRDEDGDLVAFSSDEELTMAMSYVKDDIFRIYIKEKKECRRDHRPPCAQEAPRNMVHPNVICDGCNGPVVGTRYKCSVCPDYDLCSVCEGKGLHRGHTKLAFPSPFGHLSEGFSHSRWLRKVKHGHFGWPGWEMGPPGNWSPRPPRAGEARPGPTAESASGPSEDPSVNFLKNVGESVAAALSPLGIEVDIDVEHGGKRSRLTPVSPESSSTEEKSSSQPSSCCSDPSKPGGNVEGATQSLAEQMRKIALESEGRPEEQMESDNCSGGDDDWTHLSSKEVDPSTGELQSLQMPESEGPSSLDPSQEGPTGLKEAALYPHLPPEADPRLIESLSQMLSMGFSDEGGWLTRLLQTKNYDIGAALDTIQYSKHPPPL

Compound | p62 protein oligomerization activity (immunoblot, FIGS. 2a to 2d) (p62 protein [1]) | delivery of ubiquitinated proteins marked with FK2 to autophagosome mediated by p62 (FIGS. 3a to 3d) (p62 protein [2]) | targeting of activated, oligomerized p62 protein to the autophagosome (FIG. 4) (p62 protein [3])
OCCNCc1cc(OCc2ccccc2)ccn1 [Example 5, 2-(((4-(benzyloxy)pyridin-2-yl)methyl)amino)ethan-1-ol] | increasing the p62 protein oligomerization activity | show the efficacy of delivering the proteins to be delivered to and degraded by autophagosome | –
OCCNCc1ccc(CCc2ccccc2)o1 [Example 16, 2-(((5-phenethylfuran-2-yl)methyl)amino)ethan-1-ol] | increasing the p62 protein oligomerization activity | show the efficacy of delivering the proteins to be delivered to and degraded by autophagosome | show the efficacy of targeting them to the autophagosome
O=C(CO)NCc1ccc(OCc2ccccc2)cn1 [Example 3, N-((5-(benzyloxy)pyridin-2-yl)methyl)-2-hydroxyacetamide] | increasing the p62 protein oligomerization activity | show the efficacy of delivering the proteins to be delivered to and degraded by autophagosome | show the efficacy of targeting them to the autophagosome
O=C(O)CNCc1ccc(OCCc2ccccc2)s1 [Example 20, ((5-phenethoxythiophen-2-yl)methyl)glycine] | increasing the p62 protein oligomerization activity | show the efficacy of delivering the proteins to be delivered to and degraded by autophagosome | –
OCCNC[C@@H](O)COc1cncc(OCc2ccccc2)c1 [Example 13, (R)-1-((5-(benzyloxy)pyridin-3-yl)oxy)-3-((2-hydroxyethyl)amino)propan-2-ol] | increasing the p62 protein oligomerization activity | show the efficacy of delivering the proteins to be delivered to and degraded by autophagosome | –
O=C(CO)NCc1cccc(OCc2ccccc2)n1 [Example 1] | increasing the p62 protein oligomerization activity | show the efficacy of delivering the proteins to be delivered to and degraded by autophagosome | –
OCCNC[C@@H](O)COc1cc(OCc2ccccc2)ccn1 [Example 10, (R)-1-((4-(benzyloxy)pyridin-2-yl)oxy)-3-((2-hydroxyethyl)amino)propan-2-ol] | increasing the p62 protein oligomerization activity | show the efficacy of delivering the proteins to be delivered to and degraded by autophagosome | –
OCCNC[C@@H](O)CNc1cccc(OCc2ccccc2)n1 [Example 15, (R)-1-((6-(benzyloxy)pyridin-2-yl)amino)-3-((2-hydroxyethyl)amino)propan-2-ol] | increasing the p62 protein oligomerization activity | show the efficacy of delivering the proteins to be delivered to and degraded by autophagosome | –
COc1ccc(OC[C@H](O)CNCCO)nc1OCc1ccccc1 [Example 11, (R)-1-((6-(benzyloxy)-5-methoxypyridin-2-yl)oxy)-3-((2-hydroxyethyl)amino)propan-2-ol] | increasing the p62 protein oligomerization activity | show the efficacy of delivering the proteins to be delivered to and degraded by autophagosome | –
OCCNC[C@@H](O)COc1cccc(NCc2ccccc2)n1 [Example 14, (R)-1-((6-(benzylamino)pyridin-2-yl)oxy)-3-((2-hydroxyethyl)amino)propan-2-ol] | increasing the p62 protein oligomerization activity | show the efficacy of delivering the proteins to be delivered to and degraded by autophagosome | –
O=C(CO)NCc1cc(OCc2ccccc2)c(OCc2ccccc2)cn1 [Example 7, N-((4,5-bis(benzyloxy)pyridin-2-yl)methyl)-2-hydroxyacetamide] | increasing the p62 protein oligomerization activity | show the efficacy of delivering the proteins to be delivered to and degraded by autophagosome | –
O=C(CO)NCc1ccc(CCc2ccccc2)o1 [Example 19, 2-hydroxy-N-((5-phenethylfuran-2-yl)methyl) acetamide] | increasing the p62 protein oligomerization activity | show the efficacy of delivering the proteins to be delivered to and degraded by autophagosome | –
OCCNCc1ccc(OCc2ccccc2)s1 [Example 17, 2-(((5-(benzyloxy)thiophen-2-yl)methyl)amino)ethan-1-ol] | increasing the p62 protein oligomerization activity | show the efficacy of delivering the proteins to be delivered to and degraded by autophagosome | –
OCCNCc1cc(OCc2ccccc2)c(OCc2ccccc2)cn1 [Example 8, 2-(((4,5-bis(benzyloxy)pyridin-2-yl)methyl)amino)ethan-1-ol] | increasing the p62 protein oligomerization activity | show the efficacy of delivering the proteins to be delivered to and degraded by autophagosome | –
